# pIC50, pKd: −log10 of the molar value.
# Legend:
# [1] = biological target: human TYK2 (JH2domain-pseudokinase) (Homo sapiens (Human), UniProt P29597); assay: TYK2 JH2 Domain Binding Assay (KINOMEscan)
# Outline: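 Pseudokinase domain binding was measured by qPCR of tagged, bead-retained kinase after 1 h room-temperature competition, with 0.9% DMSO and compound up to 30,000 nM in 3-fold steps. Hill-equation Kd, duplicate.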
# Tyk2 kinase domain (DH1) = Tyk2 kinase domain (DH1) (Homo sapiens (Human), UniProt P29597); assay: Tyk2 Radioactive Kinase Assay; assay type: biochemical; conditions: compound at 10 μM; ATP 10 μM; read-out: Tyk2 JH1% Inhibition @ 10 μM
# Outline: (§1)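 Read-out is percent inhibition from a radioactive kinase reaction, measured with compound at 10 μM.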
# JAK2 kinase domain (JH1) = JAK2 kinase domain (JH1) (Homo sapiens (Human), UniProt O60674); assay: JAK2 Radioactive Kinase Assay; assay type: biochemical; conditions: compound at 10 μM; ATP 10 μM; read-out: JAK2 JH1% Inhibition @ 10 μM
# Outline: as §1
# [2] = biological target: Tyk2/JAK2 (heterodimeric complex) (Homo sapiens (Human), UniProt P29597); assay: IL-12 Induced pSTAT4 in Human PBMC; assay type: cell-based; conditions: 1.7 ng/mL IL-12
# From the text: The IL-12 Induced pSTAT4 assay evaluates the inhibition of IL-12 induced STAT4 phophorylation mediated by Tyk2/JAK2 (heterodimeric complex).
# [3] = biological target: JAK2/JAK2 homdimeric complex (Homo sapiens (Human), UniProt O60674); assay: GM-CSF Induced pSTAT5 in Human PBMC; assay type: cell-based; conditions: GM-CSF 5 ng/mL for 20 minutes, pSTAT5 by MSD, read-out: PBMC_GMCSF_pSTAT5 IC50
# JAK2/JAK2 homdimeric complex, sequence (O60674 whole entry, the tested form may be a part): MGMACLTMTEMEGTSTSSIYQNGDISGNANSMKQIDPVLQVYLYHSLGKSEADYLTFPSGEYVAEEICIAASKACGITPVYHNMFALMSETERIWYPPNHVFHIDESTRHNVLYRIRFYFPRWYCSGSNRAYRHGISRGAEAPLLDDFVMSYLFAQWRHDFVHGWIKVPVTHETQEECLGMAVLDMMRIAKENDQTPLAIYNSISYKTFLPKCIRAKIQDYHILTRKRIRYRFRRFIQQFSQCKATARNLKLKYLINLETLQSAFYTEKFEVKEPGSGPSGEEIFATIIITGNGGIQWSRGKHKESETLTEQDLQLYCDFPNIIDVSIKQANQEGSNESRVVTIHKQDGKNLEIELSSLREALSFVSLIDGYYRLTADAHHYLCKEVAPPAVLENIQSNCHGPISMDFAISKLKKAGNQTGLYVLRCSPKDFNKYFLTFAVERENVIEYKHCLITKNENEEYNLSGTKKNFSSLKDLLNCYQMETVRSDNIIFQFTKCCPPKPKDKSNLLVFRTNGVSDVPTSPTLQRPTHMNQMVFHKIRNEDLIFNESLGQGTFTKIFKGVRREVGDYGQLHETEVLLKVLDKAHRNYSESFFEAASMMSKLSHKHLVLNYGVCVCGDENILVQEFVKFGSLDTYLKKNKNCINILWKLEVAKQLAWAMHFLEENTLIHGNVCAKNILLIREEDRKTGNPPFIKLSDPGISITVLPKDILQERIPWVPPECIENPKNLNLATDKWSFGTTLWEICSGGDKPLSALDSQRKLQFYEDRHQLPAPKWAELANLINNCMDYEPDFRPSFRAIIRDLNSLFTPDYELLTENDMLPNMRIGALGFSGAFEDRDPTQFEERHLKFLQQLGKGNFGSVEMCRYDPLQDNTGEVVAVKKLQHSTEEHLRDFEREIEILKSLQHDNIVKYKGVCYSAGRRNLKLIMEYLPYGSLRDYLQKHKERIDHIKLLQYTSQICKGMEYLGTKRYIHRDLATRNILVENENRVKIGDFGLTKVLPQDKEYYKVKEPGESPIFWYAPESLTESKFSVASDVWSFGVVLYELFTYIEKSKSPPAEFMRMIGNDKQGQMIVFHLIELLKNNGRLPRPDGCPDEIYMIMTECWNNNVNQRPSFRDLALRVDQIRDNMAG
# JAK2/JAK2 homdimeric complex, sequence (P32927 17-897 partner): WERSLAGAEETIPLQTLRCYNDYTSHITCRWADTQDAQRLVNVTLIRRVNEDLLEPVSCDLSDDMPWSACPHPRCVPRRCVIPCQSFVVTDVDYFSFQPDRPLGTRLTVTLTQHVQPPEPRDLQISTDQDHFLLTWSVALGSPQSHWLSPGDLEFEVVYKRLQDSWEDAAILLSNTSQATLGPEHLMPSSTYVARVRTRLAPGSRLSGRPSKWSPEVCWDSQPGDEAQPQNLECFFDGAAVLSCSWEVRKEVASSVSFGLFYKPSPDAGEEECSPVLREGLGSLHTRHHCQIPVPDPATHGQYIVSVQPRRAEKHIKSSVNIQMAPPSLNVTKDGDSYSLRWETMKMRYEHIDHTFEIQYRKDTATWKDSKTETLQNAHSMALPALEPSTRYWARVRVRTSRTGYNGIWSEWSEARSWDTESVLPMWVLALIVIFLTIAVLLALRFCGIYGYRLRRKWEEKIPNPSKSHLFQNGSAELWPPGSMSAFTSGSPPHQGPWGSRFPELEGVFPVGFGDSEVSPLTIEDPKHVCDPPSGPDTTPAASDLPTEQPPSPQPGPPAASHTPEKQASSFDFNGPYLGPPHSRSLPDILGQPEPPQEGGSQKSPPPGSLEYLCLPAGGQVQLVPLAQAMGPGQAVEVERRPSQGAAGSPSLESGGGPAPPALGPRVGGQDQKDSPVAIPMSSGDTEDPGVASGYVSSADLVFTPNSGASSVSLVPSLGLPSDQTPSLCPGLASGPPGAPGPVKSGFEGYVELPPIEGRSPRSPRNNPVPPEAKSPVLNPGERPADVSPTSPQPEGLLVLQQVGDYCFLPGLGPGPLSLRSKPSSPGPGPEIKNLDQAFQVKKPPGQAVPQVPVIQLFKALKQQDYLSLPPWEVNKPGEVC
# human TYK2 (JH2domain-pseudokinase), sequence (P29597 556-888): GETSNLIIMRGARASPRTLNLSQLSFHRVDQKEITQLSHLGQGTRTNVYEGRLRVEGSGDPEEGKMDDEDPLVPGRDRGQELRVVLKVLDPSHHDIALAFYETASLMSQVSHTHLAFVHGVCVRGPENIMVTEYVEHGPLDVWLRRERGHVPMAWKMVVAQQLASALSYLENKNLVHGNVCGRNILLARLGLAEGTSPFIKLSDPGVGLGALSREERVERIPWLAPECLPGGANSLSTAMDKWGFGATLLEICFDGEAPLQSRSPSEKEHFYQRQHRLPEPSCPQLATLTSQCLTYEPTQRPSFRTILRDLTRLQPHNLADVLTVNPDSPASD
# Tyk2/JAK2 (heterodimeric complex), sequence (P29597 whole entry, other chains not shown): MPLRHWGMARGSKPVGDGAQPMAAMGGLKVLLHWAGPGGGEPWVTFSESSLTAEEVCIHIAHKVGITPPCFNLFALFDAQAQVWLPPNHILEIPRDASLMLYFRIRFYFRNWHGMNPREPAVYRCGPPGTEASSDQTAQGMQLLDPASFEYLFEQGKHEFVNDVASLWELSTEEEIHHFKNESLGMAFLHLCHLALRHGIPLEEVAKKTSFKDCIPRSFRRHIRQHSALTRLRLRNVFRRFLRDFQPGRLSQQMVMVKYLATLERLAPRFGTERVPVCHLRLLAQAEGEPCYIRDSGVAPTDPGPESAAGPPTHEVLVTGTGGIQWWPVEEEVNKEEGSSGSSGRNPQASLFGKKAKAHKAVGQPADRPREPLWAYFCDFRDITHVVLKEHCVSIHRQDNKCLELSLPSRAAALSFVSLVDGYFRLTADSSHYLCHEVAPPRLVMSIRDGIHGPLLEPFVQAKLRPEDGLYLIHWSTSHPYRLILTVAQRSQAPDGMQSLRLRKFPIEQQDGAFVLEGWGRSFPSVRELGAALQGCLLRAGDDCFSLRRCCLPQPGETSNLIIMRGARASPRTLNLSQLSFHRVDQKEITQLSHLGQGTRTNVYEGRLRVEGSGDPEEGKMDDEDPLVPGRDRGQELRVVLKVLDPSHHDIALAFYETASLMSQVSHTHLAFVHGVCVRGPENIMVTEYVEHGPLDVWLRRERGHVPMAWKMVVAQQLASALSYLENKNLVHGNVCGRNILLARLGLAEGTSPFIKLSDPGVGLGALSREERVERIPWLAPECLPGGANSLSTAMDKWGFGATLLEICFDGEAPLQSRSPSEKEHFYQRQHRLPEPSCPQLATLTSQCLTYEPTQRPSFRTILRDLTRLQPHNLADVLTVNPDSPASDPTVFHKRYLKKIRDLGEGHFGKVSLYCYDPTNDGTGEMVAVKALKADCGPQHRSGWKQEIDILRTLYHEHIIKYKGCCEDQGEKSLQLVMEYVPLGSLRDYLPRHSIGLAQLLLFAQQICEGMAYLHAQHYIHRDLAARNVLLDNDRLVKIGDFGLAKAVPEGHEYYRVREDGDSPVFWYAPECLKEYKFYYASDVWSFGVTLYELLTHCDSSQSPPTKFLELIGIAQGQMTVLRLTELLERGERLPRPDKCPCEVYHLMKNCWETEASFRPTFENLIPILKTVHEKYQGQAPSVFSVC
# JAK2 kinase domain (JH1), sequence (O60674 849-1124): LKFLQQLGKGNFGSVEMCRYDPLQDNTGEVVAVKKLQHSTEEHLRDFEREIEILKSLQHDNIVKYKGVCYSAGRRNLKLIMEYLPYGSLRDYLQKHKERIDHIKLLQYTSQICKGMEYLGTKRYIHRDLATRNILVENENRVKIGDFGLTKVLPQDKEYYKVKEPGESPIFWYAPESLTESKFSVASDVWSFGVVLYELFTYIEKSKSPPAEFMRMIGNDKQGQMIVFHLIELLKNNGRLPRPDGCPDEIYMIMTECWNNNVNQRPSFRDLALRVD
# Tyk2 kinase domain (DH1), sequence (P29597 897-1176): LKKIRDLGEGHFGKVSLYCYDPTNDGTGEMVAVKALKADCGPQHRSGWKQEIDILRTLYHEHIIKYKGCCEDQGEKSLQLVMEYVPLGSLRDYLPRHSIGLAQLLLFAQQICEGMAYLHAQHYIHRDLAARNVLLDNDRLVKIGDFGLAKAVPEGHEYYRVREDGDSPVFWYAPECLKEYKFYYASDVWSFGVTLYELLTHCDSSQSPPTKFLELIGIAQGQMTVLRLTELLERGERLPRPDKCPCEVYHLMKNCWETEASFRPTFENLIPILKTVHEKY
pKd [1],inhibition at 10 µM (Tyk2 kinase domain (DH1)),inhibition at 10 µM (JAK2 kinase domain (JH1)),pIC50 [2],pIC50 [3],SMILES
9.00 to 9.70,< 50%,< 50%,> 7.00,< 5.60,CNc1cc(Nc2cccn(-c3nc(C)c(C)s3)c2=O)nc2c(C(=O)N[C@H]3C[C@H]3F)cnn12 [I-292]
9.00 to 9.70,< 50%,< 50%,> 7.00,< 4.90,CNc1cc(Nc2cccn(-c3ccn(C)n3)c2=O)nc2c(C(=O)NC3CC3)cnn12 [I-294]
> 9.70,< 50%,< 50%,> 7.00,< 4.30,CNc1cc(Nc2cccn(-c3cnn(C)c3)c2=O)nc2c(C(=O)N[C@H]3C[C@H]3F)cnn12 [I-296]
> 9.70,< 50%,< 50%,> 7.00,< 4.90,CNc1cc(Nc2cc(Cl)cn(-c3ccn(C)n3)c2=O)nc2c(C(=O)N[C@H]3C[C@H]3F)cnn12 [I-309]
> 9.70,< 50%,< 50%,> 7.00,< 5.60,CNc1cc(Nc2cc(Cl)cn(-c3ccn(C)n3)c2=O)nc2c(C(=O)NC3CC3)cnn12 [I-310]
> 9.70,< 50%,< 50%,> 7.00,< 4.90,CNc1cc(Nc2cc(Cl)cn(-c3cnn(C)c3)c2=O)nc2c(C(=O)NC3CC3)cnn12 [I-311]
> 9.70,< 50%,< 50%,> 7.00,< 4.90,CNc1cc(Nc2cc(Cl)cn(-c3cnn(C)c3)c2=O)nc2c(C(=O)N[C@H]3C[C@H]3F)cnn12 [I-312]
> 9.70,< 50%,< 50%,> 7.00,< 5.60,CNc1cc(Nc2cc(Cl)cn(-c3cc(C)n(C)n3)c2=O)nc2c(C(=O)NC3CC3)cnn12 [I-314]
> 9.70,< 50%,< 50%,> 7.00,< 4.90,CNc1cc(Nc2cc(Cl)cn(-c3cc(C)n(C)n3)c2=O)nc2c(C(=O)N[C@H]3C[C@H]3F)cnn12 [I-315]
> 9.70,< 50%,< 50%,> 7.00,< 5.60,CNc1cc(Nc2cc(Cl)cn(-c3ccnc(C)n3)c2=O)nc2c(C(=O)N[C@H]3C[C@H]3F)cnn12 [I-317]
> 9.70,< 50%,< 50%,> 7.00,< 5.60,CNc1cc(Nc2cc(Cl)cn(-c3cnc(C(=O)N(C)C)cn3)c2=O)nc2c(C(=O)N[C@H]3C[C@H]3F)cnn12 [I-319]
> 9.70,< 50%,< 50%,> 7.00,< 5.60,CNc1cc(Nc2cc(Cl)cn(-c3ncc(C)s3)c2=O)nc2c(C(=O)N[C@H]3C[C@H]3F)cnn12 [I-323]
> 9.70,< 50%,< 50%,> 7.00,< 4.30,CNc1cc(Nc2cc(Cl)cn(-c3cnn(C4CC4)c3C)c2=O)nc2c(C(=O)N[C@H]3C[C@H]3F)cnn12 [I-326]
> 9.70,< 50%,< 50%,> 7.00,< 4.90,CNc1cc(Nc2cc(Cl)cn(-c3ccn(C4CC4)n3)c2=O)nc2c(C(=O)NC3CC3)cnn12 [I-331]
> 9.70,< 50%,< 50%,> 7.00,< 5.60,CNc1cc(Nc2cc(Cl)cn(-c3ccn(C4CC4)n3)c2=O)nc2c(C(=O)N[C@H]3C[C@H]3F)cnn12 [I-332]
> 9.70,< 50%,< 50%,> 7.00,< 4.30,CNc1cc(Nc2cc(Cl)cn(-c3ccc(C4CC4)nn3)c2=O)nc2c(C(=O)N[C@H]3C[C@H]3F)cnn12 [I-334]

# Continued, compound first:
SMILES,pKd [1],inhibition at 10 µM (Tyk2 kinase domain (DH1)),inhibition at 10 µM (JAK2 kinase domain (JH1)),pIC50 [2],pIC50 [3]
CNc1cc(Nc2cc(F)cnc2OC2CC2)nc2c(C(=O)NC3CC3)cnn12 [I-274],> 9.70,< 50%,< 50%,> 7.00,< 4.90
CNc1cc(Nc2cc(F)cnc2OC2CC2)nc2c(C(=O)N[C@H]3C[C@H]3F)cnn12 [I-275],> 9.70,< 50%,< 50%,> 7.00,< 4.30
CNc1cc(Nc2cc(F)cnc2OC2CC2)nc2c(C(=O)NC3CCC3)cnn12 [I-276],> 9.70,< 50%,< 50%,> 7.00,< 4.30
CNc1cc(Nc2cc(C)cnc2OC2CC2)nc2c(C(=O)NC3CC3)cnn12 [I-277],9.00 to 9.70,< 50%,< 50%,6.30 to 7.00,< 4.30
CNc1cc(Nc2cc(C)cnc2OCCOC)nc2c(C(=O)NC3CC3)cnn12 [I-281],9.00 to 9.70,< 50%,< 50%,6.30 to 7.00,< 5.60
CNc1cc(Nc2cc(C)cnc2OCCOC)nc2c(C(=O)NC3CCC3)cnn12 [I-282],9.00 to 9.70,< 50%,< 50%,6.30 to 7.00,< 5.60
CNc1cc(Nc2cc(F)cnc2OC)nc2c(C(=O)NCC(C)(C)CO)cnn12 [I-283],> 9.70,< 50%,< 50%,> 7.00,< 4.30
[2H]C([2H])([2H])Oc1ncc(F)cc1Nc1cc(NC)n2ncc(C(=O)NC3CC3)c2n1 [I-284],> 9.70,< 50%,< 50%,> 7.00,< 4.90
CNc1cc(Nc2cc(F)cnc2OCCOC)nc2c(C(=O)N[C@H]3C[C@H]3F)cnn12 [I-285],> 9.70,< 50%,< 50%,> 7.00,< 4.30
[2H]C([2H])([2H])Oc1ncc(F)cc1Nc1cc(NC)n2ncc(C(=O)NC3CCC3)c2n1 [I-288],> 9.70,< 50%,< 50%,> 7.00,< 5.60
CNc1cc(Nc2cc(F)cnc2OCCOC)nc2c(C(=O)NC3CCC3)cnn12 [I-290],9.00 to 9.70,< 50%,< 50%,> 7.00,< 5.60
CNc1cc(Nc2cccn(-c3cnn(C)c3)c2=O)nc2c(C(=O)NC3CC3)cnn12 [I-295],> 9.70,< 50%,< 50%,> 7.00,< 4.30
CNc1cc(Nc2cccn(-c3cncc(C)c3)c2=O)nc2c(C(=O)NC3CCC3)cnn12 [I-303],> 9.70,< 50%,< 50%,> 7.00,< 4.30
CNc1cc(Nc2cccn(C3CCCCC3)c2=O)nc2c(C(=O)N[C@H]3C[C@H]3F)cnn12 [I-305],> 9.70,< 50%,< 50%,> 7.00,< 4.90
CNc1cc(Nc2cc(Cl)cn(-c3cnc(C(=O)N(C)C)cn3)c2=O)nc2c(C(=O)NC3CC3)cnn12 [I-318],> 9.70,< 50%,< 50%,> 7.00,< 5.60
"[2H]C([2H])([2H])Oc1ncccc1Nc1cc(NC)n2ncc(C(=O)N[C@H]3C[C@H](O)C3)c2n1 [I-321, N-((1r, 3r)-3-hydroxycyclobutyl)-5-((2-(methoxy-d3)pyridin-3-yl)amino)-7-(methylamino)pyrazolo[1,5-a]pyrimidine-3-carboxamide]",> 9.70,< 50%,< 50%,> 7.00,< 5.60
CNc1cc(Nc2cccn(C3CCOCC3)c2=O)nc2c(C(=O)NC3CC3)cnn12 [I-329],> 9.70,< 50%,< 50%,> 7.00,< 5.60
CNc1cc(Nc2cccn(C3CCOCC3)c2=O)nc2c(C(=O)N[C@H]3C[C@H]3F)cnn12 [I-330],> 9.70,< 50%,< 50%,> 7.00,< 5.60
CNc1cc(Nc2cc(Cl)cn(-c3ccc(C4CC4)nn3)c2=O)nc2c(C(=O)NC3CC3)cnn12 [I-333],> 9.70,< 50%,< 50%,> 7.00,< 4.90
CNc1cc(Nc2cccn(-c3cc(C)nn3C)c2=O)nc2c(C(=O)NC3CCC3)cnn12 [I-342],9.00 to 9.70,< 50%,< 50%,> 7.00,< 4.90
CNc1cc(Nc2cccn([C@H]3CC[C@H](OC)CC3)c2=O)nc2c(C(=O)NC3CC3)cnn12 [I-343],> 9.70,< 50%,< 50%,> 7.00,< 4.90

# From patent US10508120B2, “TYK2 inhibitors and uses thereof” (Nimbus Lakshmi, Inc., priority 2017, dated 2019)
